# Measured values reported in PubChem BioAssay (NCI).
#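 Cells were grown in 96-well plates and exposed to each compound for 48 hours at five concentrations; endpoints were interpolated linearly between bracketing concentrations, or set to the highest concentration if not reached. GI50 is the concentration that inhibits growth by half. TGI denotes the concentration required for complete inhibition of growth.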
# Assays:
# Assay in all cases: NCI tumour cell line growth inhibition, 48 h
# SW-620 colon = system: SW-620 colon
# SF-268 CNS = system: SF-268 CNS
# 786-0 renal = system: 786-0 renal
# UO-31 renal = system: UO-31 renal
# HCT-116 colon = system: HCT-116 colon
# NCI-H522 lung = system: NCI-H522 lung
# SF-295 CNS = system: SF-295 CNS
# A498 renal = system: A498 renal
# NCI-H23 lung = system: NCI-H23 lung
# PC-3 prostate = system: PC-3 prostate
# IGROV1 ovarian = system: IGROV1 ovarian
# OVCAR-5 ovarian = system: OVCAR-5 ovarian
# SK-MEL-28 melanoma = system: SK-MEL-28 melanoma
# U251 CNS = system: U251 CNS
# SNB-75 CNS = system: SNB-75 CNS
# HT29 colon = system: HT29 colon
# HCT-15 colon = system: HCT-15 colon
# MDA-MB-231 breast = system: MDA-MB-231 breast
# KM12 colon = system: KM12 colon
# CCRF-CEM leukemia = system: CCRF-CEM leukemia
# RPMI-8226 leukemia = system: RPMI-8226 leukemia
# NCI/ADR-RES ovarian = system: NCI/ADR-RES ovarian
# HCC-2998 colon = system: HCC-2998 colon
# DU-145 prostate = system: DU-145 prostate
# SN12C renal = system: SN12C renal
# LOX IMVI melanoma = system: LOX IMVI melanoma
# SK-MEL-2 melanoma = system: SK-MEL-2 melanoma
# OVCAR-3 ovarian = system: OVCAR-3 ovarian
# HOP-92 NSCLC = system: HOP-92 NSCLC
# MALME-3M melanoma = system: MALME-3M melanoma
# BT-549 breast = system: BT-549 breast
# RXF 393 renal = system: RXF 393 renal
# HL-60(TB) leukemia = system: HL-60(TB) leukemia
# SNB-19 CNS = system: SNB-19 CNS
# HS 578T breast = system: HS 578T breast
# T-47D breast = system: T-47D breast
# OVCAR-8 ovarian = system: OVCAR-8 ovarian
# MDA-MB-435 = system: MDA-MB-435
# ACHN renal = system: ACHN renal
# UACC-257 melanoma = system: UACC-257 melanoma
# A549 NSCLC = system: A549 NSCLC
# COLO 205 colon = system: COLO 205 colon
# MCF7 breast = system: MCF7 breast
# SR leukemia = system: SR leukemia
# SF-539 CNS = system: SF-539 CNS
# MOLT-4 leukemia = system: MOLT-4 leukemia
# CAKI-1 renal = system: CAKI-1 renal
# SK-OV-3 ovarian = system: SK-OV-3 ovarian
# HOP-62 NSCLC = system: HOP-62 NSCLC
# M14 melanoma = system: M14 melanoma
# UACC-62 melanoma = system: UACC-62 melanoma
# TK-10 renal = system: TK-10 renal
# NCI-H226 lung = system: NCI-H226 lung
# SK-MEL-5 melanoma = system: SK-MEL-5 melanoma
# NCI-H460 lung = system: NCI-H460 lung
compound,measurement,setting,value
Cc1ccc(C)c(NC2=C(Cl)C(=O)c3nc(C)ccc3C2=O)c1,GI50,SW-620 colon,1.79 µM
same,TGI,SW-620 colon,4.27 µM
same,GI50,SF-268 CNS,1.42 µM
same,TGI,SF-268 CNS,3.29 µM
same,GI50,786-0 renal,1.79 µM
same,TGI,786-0 renal,3.74 µM
same,GI50,UO-31 renal,1.25 µM
same,TGI,UO-31 renal,2.64 µM
same,GI50,HCT-116 colon,0.333 µM
same,TGI,HCT-116 colon,1.51 µM
same,GI50,NCI-H522 lung,1.92 µM
same,TGI,NCI-H522 lung,4.38 µM
same,GI50,SF-295 CNS,1.75 µM
same,TGI,SF-295 CNS,3.31 µM
same,GI50,A498 renal,2.03 µM
same,TGI,A498 renal,8.14 µM
same,GI50,NCI-H23 lung,1.26 µM
same,TGI,NCI-H23 lung,3.92 µM
same,GI50,PC-3 prostate,1.14 µM
same,TGI,PC-3 prostate,2.92 µM
same,GI50,IGROV1 ovarian,1.36 µM
same,TGI,IGROV1 ovarian,3.3 µM
same,GI50,OVCAR-5 ovarian,2.41 µM
same,TGI,OVCAR-5 ovarian,4.51 µM
same,GI50,SK-MEL-28 melanoma,1.99 µM
same,TGI,SK-MEL-28 melanoma,3.7 µM
same,GI50,U251 CNS,1.29 µM
same,TGI,U251 CNS,2.78 µM
same,GI50,SNB-75 CNS,1.22 µM
same,TGI,SNB-75 CNS,2.64 µM
same,GI50,HT29 colon,3.08 µM
same,TGI,HT29 colon,8.77 µM
same,GI50,HCT-15 colon,0.848 µM
same,TGI,HCT-15 colon,2.56 µM
same,GI50,MDA-MB-231 breast,0.969 µM
same,TGI,MDA-MB-231 breast,2.82 µM
same,GI50,KM12 colon,1.54 µM
same,TGI,KM12 colon,3.57 µM
same,GI50,CCRF-CEM leukemia,1.61 µM
same,TGI,CCRF-CEM leukemia,5.8 µM
same,GI50,RPMI-8226 leukemia,0.708 µM
same,TGI,RPMI-8226 leukemia,3.34 µM
same,GI50,NCI/ADR-RES ovarian,1.33 µM
same,TGI,NCI/ADR-RES ovarian,5.02 µM
same,GI50,HCC-2998 colon,1.75 µM
same,TGI,HCC-2998 colon,3.25 µM
same,GI50,DU-145 prostate,1.6 µM
same,TGI,DU-145 prostate,3.08 µM
same,GI50,SN12C renal,1.05 µM
same,TGI,SN12C renal,3.15 µM
same,GI50,LOX IMVI melanoma,0.288 µM
same,TGI,LOX IMVI melanoma,1.59 µM
same,GI50,SK-MEL-2 melanoma,1.93 µM
same,TGI,SK-MEL-2 melanoma,3.89 µM
same,GI50,OVCAR-3 ovarian,0.292 µM
same,TGI,OVCAR-3 ovarian,1.15 µM
same,GI50,HOP-92 NSCLC,1.84 µM
same,TGI,HOP-92 NSCLC,3.78 µM
same,GI50,MALME-3M melanoma,2.12 µM
same,TGI,MALME-3M melanoma,4.17 µM
same,GI50,BT-549 breast,1.32 µM
same,TGI,BT-549 breast,2.66 µM
same,GI50,RXF 393 renal,1.22 µM
same,TGI,RXF 393 renal,2.5 µM
same,GI50,HL-60(TB) leukemia,1.16 µM
same,TGI,HL-60(TB) leukemia,3.36 µM
same,GI50,SNB-19 CNS,1.49 µM
same,TGI,SNB-19 CNS,3.42 µM
same,GI50,HS 578T breast,2.05 µM
same,TGI,HS 578T breast,5.76 µM
same,GI50,T-47D breast,1.26 µM
same,TGI,T-47D breast,3.72 µM
same,GI50,OVCAR-8 ovarian,1.79 µM
same,TGI,OVCAR-8 ovarian,6.01 µM
same,GI50,MDA-MB-435,1.41 µM
same,TGI,MDA-MB-435,3.27 µM
same,GI50,ACHN renal,1.45 µM
same,TGI,ACHN renal,2.91 µM
same,GI50,UACC-257 melanoma,1.42 µM
same,TGI,UACC-257 melanoma,2.82 µM
same,GI50,A549 NSCLC,2.1 µM
same,TGI,A549 NSCLC,4.75 µM
same,GI50,COLO 205 colon,2.09 µM
same,TGI,COLO 205 colon,4.49 µM
same,GI50,MCF7 breast,0.917 µM
same,TGI,MCF7 breast,3.01 µM
same,GI50,SR leukemia,0.695 µM
same,TGI,SR leukemia,3.23 µM
same,GI50,SF-539 CNS,1.65 µM
same,TGI,SF-539 CNS,3.12 µM
same,GI50,MOLT-4 leukemia,0.633 µM
same,TGI,MOLT-4 leukemia,4.09 µM
same,GI50,CAKI-1 renal,1.43 µM
same,TGI,CAKI-1 renal,3.03 µM
same,GI50,SK-OV-3 ovarian,2.74 µM
same,TGI,SK-OV-3 ovarian,14.6 µM
same,GI50,HOP-62 NSCLC,1.45 µM
same,TGI,HOP-62 NSCLC,2.99 µM
same,GI50,M14 melanoma,1.46 µM
same,TGI,M14 melanoma,2.9 µM
same,GI50,UACC-62 melanoma,1.56 µM
same,TGI,UACC-62 melanoma,3.26 µM
same,GI50,TK-10 renal,2.61 µM
same,TGI,TK-10 renal,4.24 µM
same,GI50,NCI-H226 lung,1.67 µM
same,TGI,NCI-H226 lung,4.4 µM
same,GI50,SK-MEL-5 melanoma,1.5 µM
same,TGI,SK-MEL-5 melanoma,2.89 µM
same,GI50,NCI-H460 lung,1.88 µM
same,TGI,NCI-H460 lung,3.95 µM
